Assay results published in US20030223978A1, “Conjugates of an AMF ligand and a cytotoxic molecule for use in cancer therapy” (priority 1998, published 2003).

Assays:
[1] = system: B16-F10 metastatic murine melanoma cell line; assay: Cell toxicity of AMF-doxorubicin conjugate; type: cell-based; conditions: approximately 0.3, 3, or 30 μg/ml; 3 (Expt. 1) or 4 days (Expt. 2); increasing concentrations
Protocol: Rabbit PHI is internalized by murine NIH-3T3 fibroblasts (Benlimame et al., 1998, Molec. Biol. Cell 9: 1773-1786) and the ability of the AMF-doxorubicin conjugate to kill metastatic tumor cells was tested with the B16-F10 metastatic murine melanoma cell line. B16-F10 cells were plated at a density of 4,000 cells/cm2 and after 24 hours in culture AMF-doxorubicin conjugate was added at a concentration of approximately 0.3, 3, or 30 μg/ml (FIG. 8). After 3 (Expt. 1) or 4 days (Expt. 2) the cultures were fixed and cells remaining attached to the substrate counted. The number of cells remaining attached to the substrate is presented relative to control cells to which no AMF-doxorubicin was added.

NIH-3T3 cells [2] = assay: bAMF internalization, immunofluorescence and confocal microscopy; type: cell-based, mouse
Protocol: For the AMF internalization studies, NIH-3T3 cells were pulsed with biotinylated AMF (˜250-500 μg/ml) and chased at 37° C. for the indicated periods of time prior to fixation by the addition of precooled (−80° C.) methanol/acetone directly to the cells. […] Disruption of clathrin coated pits and vesicles by cytoplasmic acidification was performed essentially as previously described (Heuser, J. (1989) J. Cell Biol. 108, 401-411). NIH-3T3 cells were pretreated with acidification medium (DMEM containing 5% calf serum and 50 mM MES pH 5.5) for 15 minutes at 37° C. prior to addition of bAMF in acidification medium for one hour at 37° C. To ensure that cellular acidification blocked clathrin-mediated endocytosis, Texas Red transferrin (50 μg/ml) was added to cells in regular or acidification medium for 30 minutes at 37° C. after which the cells were fixed with 3% paraformaldehyde.
After labeling the coverslips were mounted in Airvol (Air Products and Chemicals Inc., Allentown, Pa.) and viewed in a Zeiss Axioskop fluorescent microscope equipped with a 63× Plan Apochromat objective and selective filters. Confocal microscopy was performed with the 60× Nikon Plan Apochromat objective of a dual channel BioRad 600 laser scanning confocal microscope equipped with a krypton/argon laser and the corresponding dichroic reflectors to distinguish fluorescein and Texas Red labeling. Confocal images were printed using a Polaroid TX 1500 video printer.

NIH-3T3 cells [3] = assay: bAMF internalization pathway by post-embedding electron microscopy; type: cell-based, mouse
Protocol: Post-embedding immunolabeling for AMF-R was performed as previously described (Benlimame, N. et al. (1995) J. Cell Biol. 129, 459-471). Cells grown on petri dishes were rinsed and incubated at 37° C. in Ringer's solution for 15 minutes before fixing in Ringer's solution containing 2% paraformaldehyde and 0.2% glutaraldehyde for 30 minutes at 37° C. The fixed cells were rinsed in PBS/CM, scraped from the petri dish and collected by centrifugation. The cell pellet was post-fixed for 30 minutes with 1% osmium tetroxide in PBS/CM containing 1.5% potassium ferrocyanide (reduced osmium), dehydrated and embedded in LR-White resin. […] The numerical density of gold particles associated with plasma membrane, caveolae, clathrin coated pits and vesicles, smooth tubules and vesicles, and rough ER was determined. The length of the limiting membrane of the indicated organelles was measured using a Sigma-Scan measurement system and the gold particles associated with these organelles counted. […] Control labeling with non-immune rat IgM antibodies was analyzed similarly.
To follow the endocytic pathway of AMF by electron microscopy, biotinylated AMF was internalized as described for the fluorescence studies and detected by postembedding labeling with streptavidin conjugated to 10 nm gold as described above.

AMF-R = molecular target: T1, AMF-R (Mus musculus, UniProt Q9R049); assay: Cell surface labeling of viable cells at 4° C. with bAMF and anti-AMF-R; type: binding; conditions: viable NIH-3T3 cells, confocal
T1 construct: Confocal imaging of cell surface labeling of viable NIH-3T3 cells at 4° C. with bAMF; endogenous in cells; host or cells: NIH-3T3 fibroblasts (ATCC, a highly spread clone)
T1 sequence (Q9R049 whole entry): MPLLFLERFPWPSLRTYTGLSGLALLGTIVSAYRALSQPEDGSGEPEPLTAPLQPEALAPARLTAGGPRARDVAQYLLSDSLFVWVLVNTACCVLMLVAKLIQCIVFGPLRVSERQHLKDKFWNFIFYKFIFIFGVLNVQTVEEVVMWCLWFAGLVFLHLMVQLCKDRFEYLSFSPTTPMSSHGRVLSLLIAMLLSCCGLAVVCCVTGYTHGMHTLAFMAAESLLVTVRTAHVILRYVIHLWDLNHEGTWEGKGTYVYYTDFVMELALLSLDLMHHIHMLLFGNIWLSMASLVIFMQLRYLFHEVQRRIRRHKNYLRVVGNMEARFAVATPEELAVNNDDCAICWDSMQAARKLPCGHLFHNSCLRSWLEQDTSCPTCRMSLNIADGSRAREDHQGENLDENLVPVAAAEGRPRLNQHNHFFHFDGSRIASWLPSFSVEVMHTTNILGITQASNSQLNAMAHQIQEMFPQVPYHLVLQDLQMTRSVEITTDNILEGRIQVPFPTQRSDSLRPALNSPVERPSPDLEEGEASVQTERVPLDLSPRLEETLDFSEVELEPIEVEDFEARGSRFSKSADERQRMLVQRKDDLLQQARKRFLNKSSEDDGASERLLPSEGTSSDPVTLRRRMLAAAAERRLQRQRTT
Protocol: Cells were plated on glass cover slips 2 days prior to each experiment at a concentration of 30,000 cells/35 mm dish. For AMF-R surface labeling, the cells were incubated in DMEM minus bicarbonate supplemented with 25 mM Hepes pH 7.2 and 2.5% serum for 15 min at 4° C. prior to labeling with anti-AMF-R primary antibody or biotinylated AMF at 4° C. for 30 min. The cells were washed at 4° C. and then fixed with 3% paraformaldehyde in phosphate buffered saline (pH 7.4) supplemented with 0.1 mM Ca++ and 1 mM Mg++ (PBS/CM) for 15 min at room temperature. For caveolin labeling, after AMF-R surface labeling at 4° C. and fixation as above, the cells were permeabilized with 0.2% Triton X-100 for 10 min, then extensively washed with PBS/CM containing 1% BSA. The cells were incubated with rabbit anti-caveolin polyclonal antibodies, washed, and then incubated with FITC goat anti-rat IgM to reveal anti-AMF-R and Texas Red donkey anti-rabbit IgG to reveal anti-caveolin.

Row | Substance | number of cells remaining attached to the substrate relative to control cells [1] | localization of internalized bAMF (NIH-3T3 cells [2]; 1 hour at 37° C., 10-fold excess unlabeled AMF) | localization of internalized bAMF (NIH-3T3 cells [2]; 1 hour at 37° C., medium acidified to pH 5.5 (clathrin-mediated endocytosis disrupted)) | localization of internalized bAMF (NIH-3T3 cells [2]; 1 hour pulse at 37° C., regular medium) | localization of internalized bAMF (NIH-3T3 cells [2]; two hour pulse, chase of 2 or 4 hours) | localization of bAMF by streptavidin-10 nm gold (NIH-3T3 cells [3]; 10 minute pulse at 37° C.) | localization of bAMF by streptavidin-10 nm gold (NIH-3T3 cells [3]; 30 minute pulse at 37° C.) | colocalization of cell surface bAMF with anti-AMF-R labeling (AMF-R)
1 | AMF-doxorubicin: commercially available PHI (AMF) conjugated to the cellular toxin doxorubicin by glutaraldehyde mediated crosslinking | progressive toxicity |  |  |  |  |  |  | 
2 | bAMF: Rabbit phosphohexose isomerase (AMF) biotinylated with NHS-LC-biotin |  | localized only to punctate structures | localized to tubules which colocalize with AMF-R tubules | localized to tubular structures which colocalize with AMF-R tubules | accumulation of bAMF labeling in tubular structures which colocalized with AMF-R tubules | localized to cell surface caveolae | localized to caveolae and smooth vesicles | high degree of colocalization
